In test [1] the target is Dual specificity protein kinase CLK3 (Homo sapiens, UniProt P49761). Kind of test: Selectivity interaction (Ambit KINOMEscan and KiNATiv profiling in Jurkat cells) EUB0000090b CLK3. The note with it: at 1 µM. Format: cell-based.
In test [2] the target is T1, SNF-related serine/threonine-protein kinase (Homo sapiens) (UniProt Q9NRH2).
T1 sequence (whole entry): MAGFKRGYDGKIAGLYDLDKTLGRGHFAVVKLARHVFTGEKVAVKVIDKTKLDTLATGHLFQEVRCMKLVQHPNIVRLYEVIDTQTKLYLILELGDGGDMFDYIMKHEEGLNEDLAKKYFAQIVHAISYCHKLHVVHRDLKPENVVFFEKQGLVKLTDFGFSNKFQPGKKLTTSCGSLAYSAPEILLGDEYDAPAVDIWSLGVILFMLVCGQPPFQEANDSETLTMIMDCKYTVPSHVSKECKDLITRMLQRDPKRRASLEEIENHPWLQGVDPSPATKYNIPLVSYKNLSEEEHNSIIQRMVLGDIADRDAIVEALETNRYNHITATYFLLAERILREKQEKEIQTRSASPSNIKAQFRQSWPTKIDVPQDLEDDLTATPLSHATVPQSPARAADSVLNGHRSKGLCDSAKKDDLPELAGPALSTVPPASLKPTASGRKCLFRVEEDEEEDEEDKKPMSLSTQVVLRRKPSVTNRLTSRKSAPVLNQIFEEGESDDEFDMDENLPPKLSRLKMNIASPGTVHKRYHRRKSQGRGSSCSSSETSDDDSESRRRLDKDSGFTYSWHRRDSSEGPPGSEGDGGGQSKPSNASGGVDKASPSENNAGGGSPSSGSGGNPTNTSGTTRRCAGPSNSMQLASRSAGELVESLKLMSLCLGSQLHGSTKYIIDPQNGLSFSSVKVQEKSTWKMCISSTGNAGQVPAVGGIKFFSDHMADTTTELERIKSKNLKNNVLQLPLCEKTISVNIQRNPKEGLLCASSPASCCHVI
Kind of test: Selectivity interaction (KinomeScan (DiscoverX)) EUB0000607a SNRK. The settings on record: at 10 µM.

The target of test [3] is Serine/threonine-protein kinase NIM1 (Homo sapiens, UniProt Q8IY84). The settings on record: at 10 µM.
The target of test [4] is Serine/threonine-protein kinase B-raf (Homo sapiens) (UniProt P15056). The note with it: at 10 µM.
In test [5] the target is Serine/threonine-protein kinase PLK1 (Homo sapiens, UniProt P53350). Kind of test: Selectivity interaction (KinomeScan (DiscoverX)) EUB0000229b PLK1. The settings on record: at 10 µM.
Test [6] addresses Dual specificity mitogen-activated protein kinase kinase 2 (Homo sapiens) (UniProt P36507). Put plainly: Selectivity interaction (KinomeScan (DiscoverX)) EUB0001079a MAP2K2. The note with it: at 1 µM.
The next test concerns the target Aurora kinase B (Homo sapiens, UniProt Q96GD4). Put plainly: Selectivity interaction (Enyzmatic assay) EUB0000601a AURKB.
The nature of test [7]: Selectivity interaction (Rat whole blood B cell activation assay) EUB0000877a PIK3CD. It counts as tissue-based.
Test [8] has as its target eIF-2-alpha kinase GCN2 (Homo sapiens) (UniProt Q9P2K8). Kind of test: Selectivity interaction (ActivX KiNativ screen (kinase selectivity in THP-1 cell lysates)) EUB0000639a EIF2AK4. It counts as subcellular. The note with it: lysate, at 0.04 µM.
The target of test [9] is [Pyruvate dehydrogenase (acetyl-transferring)] kinase isozyme 1, mitochondrial (Homo sapiens, UniProt Q15118). Put plainly: Selectivity interaction (ProQinase) EUB0000171b PDK1.
In test [10] the target is T2, Myosin-IIIb (Homo sapiens) (UniProt Q8WXR4).
T2 sequence (whole entry): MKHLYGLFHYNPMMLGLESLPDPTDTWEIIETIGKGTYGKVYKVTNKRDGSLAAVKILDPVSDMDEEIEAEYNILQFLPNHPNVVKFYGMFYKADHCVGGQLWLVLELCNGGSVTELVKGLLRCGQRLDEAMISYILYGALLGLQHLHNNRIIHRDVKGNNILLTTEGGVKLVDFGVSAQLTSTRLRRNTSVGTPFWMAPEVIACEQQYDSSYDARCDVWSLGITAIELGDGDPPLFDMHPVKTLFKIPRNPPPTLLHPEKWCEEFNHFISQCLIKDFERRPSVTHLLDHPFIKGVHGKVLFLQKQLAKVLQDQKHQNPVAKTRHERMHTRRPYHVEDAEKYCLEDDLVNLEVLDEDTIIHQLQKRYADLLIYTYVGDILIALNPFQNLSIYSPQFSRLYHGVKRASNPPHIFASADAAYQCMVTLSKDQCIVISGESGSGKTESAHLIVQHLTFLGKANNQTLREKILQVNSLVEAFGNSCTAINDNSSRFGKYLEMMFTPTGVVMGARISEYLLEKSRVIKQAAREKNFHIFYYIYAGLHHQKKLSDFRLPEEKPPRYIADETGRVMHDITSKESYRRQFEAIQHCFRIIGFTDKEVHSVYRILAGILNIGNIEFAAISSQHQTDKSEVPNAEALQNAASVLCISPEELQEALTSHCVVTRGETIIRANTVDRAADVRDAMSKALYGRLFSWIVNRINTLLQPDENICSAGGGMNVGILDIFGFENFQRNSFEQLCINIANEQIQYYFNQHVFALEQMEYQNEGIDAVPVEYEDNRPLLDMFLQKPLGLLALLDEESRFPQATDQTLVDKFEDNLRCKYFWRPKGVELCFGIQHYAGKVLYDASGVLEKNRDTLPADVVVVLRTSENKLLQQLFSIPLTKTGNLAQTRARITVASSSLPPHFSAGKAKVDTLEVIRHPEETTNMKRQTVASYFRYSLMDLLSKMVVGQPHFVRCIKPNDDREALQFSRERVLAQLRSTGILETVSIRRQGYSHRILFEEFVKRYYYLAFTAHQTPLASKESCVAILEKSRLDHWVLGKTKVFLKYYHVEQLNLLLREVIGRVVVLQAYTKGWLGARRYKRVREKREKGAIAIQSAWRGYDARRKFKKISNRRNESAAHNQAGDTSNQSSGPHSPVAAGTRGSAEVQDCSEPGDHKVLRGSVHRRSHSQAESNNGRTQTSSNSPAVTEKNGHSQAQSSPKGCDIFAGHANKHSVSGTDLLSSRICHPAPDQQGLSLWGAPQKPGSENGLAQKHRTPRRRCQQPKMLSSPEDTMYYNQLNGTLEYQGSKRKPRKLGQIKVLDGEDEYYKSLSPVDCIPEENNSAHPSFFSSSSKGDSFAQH
Kind of test: Selectivity interaction (KinomeScan (DiscoverX)) EUB0000092b MYO3B. The settings on record: at 10 µM.

Test [11] deals with Calcium/calmodulin-dependent protein kinase type II subunit delta (Homo sapiens) (UniProt Q13557). Put plainly: Selectivity interaction (Kinase panel (DSF assay)) EUB0001559a CAMK2D.
The target of test [12] is Fibroblast growth factor receptor 2 (Homo sapiens) (UniProt P21802). Put plainly: Selectivity interaction (Kinase panel (DSF assay)) EUB0001559a FGFR2. For orientation: DSF heats the sample and reads unfolding from a dye or from intrinsic fluorescence.

Each structure is given as a SMILES string.

Sequence of eIF-2-alpha kinase GCN2 (Homo sapiens) (Q9P2K8 whole entry): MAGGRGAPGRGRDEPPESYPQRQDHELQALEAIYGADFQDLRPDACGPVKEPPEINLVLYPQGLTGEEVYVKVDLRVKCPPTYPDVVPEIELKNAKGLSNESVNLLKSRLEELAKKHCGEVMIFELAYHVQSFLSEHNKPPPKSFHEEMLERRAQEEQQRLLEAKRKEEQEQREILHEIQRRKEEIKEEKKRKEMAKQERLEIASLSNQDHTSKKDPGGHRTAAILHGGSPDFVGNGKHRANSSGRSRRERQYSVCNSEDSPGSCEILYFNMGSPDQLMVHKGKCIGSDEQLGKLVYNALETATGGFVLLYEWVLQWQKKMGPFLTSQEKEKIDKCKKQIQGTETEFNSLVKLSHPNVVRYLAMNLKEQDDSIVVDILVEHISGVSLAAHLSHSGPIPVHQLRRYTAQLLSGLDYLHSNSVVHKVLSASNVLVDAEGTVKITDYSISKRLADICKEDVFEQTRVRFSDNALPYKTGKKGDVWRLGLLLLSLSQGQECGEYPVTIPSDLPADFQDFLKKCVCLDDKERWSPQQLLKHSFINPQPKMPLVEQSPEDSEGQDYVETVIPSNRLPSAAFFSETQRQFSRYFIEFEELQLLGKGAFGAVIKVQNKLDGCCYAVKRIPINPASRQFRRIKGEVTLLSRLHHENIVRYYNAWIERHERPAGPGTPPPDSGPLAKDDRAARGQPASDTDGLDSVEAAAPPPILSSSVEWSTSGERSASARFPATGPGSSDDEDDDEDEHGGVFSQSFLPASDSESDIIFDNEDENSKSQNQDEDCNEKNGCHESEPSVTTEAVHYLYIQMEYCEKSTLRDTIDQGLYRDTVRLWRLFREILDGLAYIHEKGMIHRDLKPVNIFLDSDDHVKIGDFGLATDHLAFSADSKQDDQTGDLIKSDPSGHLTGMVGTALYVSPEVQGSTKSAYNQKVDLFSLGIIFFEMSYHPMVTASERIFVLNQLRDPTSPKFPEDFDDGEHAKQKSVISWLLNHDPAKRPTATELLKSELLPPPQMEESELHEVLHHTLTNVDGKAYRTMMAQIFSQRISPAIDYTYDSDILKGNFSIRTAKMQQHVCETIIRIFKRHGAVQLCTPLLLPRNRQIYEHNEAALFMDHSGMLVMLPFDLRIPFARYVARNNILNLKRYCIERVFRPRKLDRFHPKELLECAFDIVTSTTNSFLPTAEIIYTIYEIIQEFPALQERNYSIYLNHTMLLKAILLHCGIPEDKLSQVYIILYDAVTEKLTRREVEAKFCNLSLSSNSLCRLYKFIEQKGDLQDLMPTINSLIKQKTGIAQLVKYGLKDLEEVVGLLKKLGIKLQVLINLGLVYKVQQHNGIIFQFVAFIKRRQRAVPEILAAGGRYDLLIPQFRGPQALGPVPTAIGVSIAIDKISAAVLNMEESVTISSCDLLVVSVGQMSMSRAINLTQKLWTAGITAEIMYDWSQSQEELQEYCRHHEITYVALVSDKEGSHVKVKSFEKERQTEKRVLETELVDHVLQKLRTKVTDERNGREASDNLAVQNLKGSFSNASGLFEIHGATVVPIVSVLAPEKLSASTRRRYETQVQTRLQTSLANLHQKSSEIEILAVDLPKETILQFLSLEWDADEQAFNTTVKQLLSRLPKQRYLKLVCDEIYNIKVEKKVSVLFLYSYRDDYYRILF
Sequence of Serine/threonine-protein kinase B-raf (Homo sapiens) (P15056 whole entry): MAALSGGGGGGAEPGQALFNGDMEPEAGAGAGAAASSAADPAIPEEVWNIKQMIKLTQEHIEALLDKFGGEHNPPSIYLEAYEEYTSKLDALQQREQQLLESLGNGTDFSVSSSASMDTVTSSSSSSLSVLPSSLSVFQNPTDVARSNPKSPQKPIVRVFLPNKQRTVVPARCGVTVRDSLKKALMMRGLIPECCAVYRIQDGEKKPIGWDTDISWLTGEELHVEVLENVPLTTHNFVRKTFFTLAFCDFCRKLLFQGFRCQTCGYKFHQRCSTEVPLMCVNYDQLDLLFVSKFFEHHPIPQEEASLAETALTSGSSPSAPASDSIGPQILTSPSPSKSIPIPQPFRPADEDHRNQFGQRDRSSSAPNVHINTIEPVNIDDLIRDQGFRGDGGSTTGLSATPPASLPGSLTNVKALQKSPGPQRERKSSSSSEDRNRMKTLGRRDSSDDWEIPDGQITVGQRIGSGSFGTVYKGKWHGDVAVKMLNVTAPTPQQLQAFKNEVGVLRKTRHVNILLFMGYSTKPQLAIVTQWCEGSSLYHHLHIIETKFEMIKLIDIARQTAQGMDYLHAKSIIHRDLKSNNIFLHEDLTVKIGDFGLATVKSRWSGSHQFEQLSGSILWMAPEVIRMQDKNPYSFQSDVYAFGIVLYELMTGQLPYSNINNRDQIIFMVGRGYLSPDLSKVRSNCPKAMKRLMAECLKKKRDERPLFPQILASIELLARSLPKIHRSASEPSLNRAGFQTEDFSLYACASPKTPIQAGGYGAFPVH
Sequence of Serine/threonine-protein kinase PLK1 (P53350 whole entry): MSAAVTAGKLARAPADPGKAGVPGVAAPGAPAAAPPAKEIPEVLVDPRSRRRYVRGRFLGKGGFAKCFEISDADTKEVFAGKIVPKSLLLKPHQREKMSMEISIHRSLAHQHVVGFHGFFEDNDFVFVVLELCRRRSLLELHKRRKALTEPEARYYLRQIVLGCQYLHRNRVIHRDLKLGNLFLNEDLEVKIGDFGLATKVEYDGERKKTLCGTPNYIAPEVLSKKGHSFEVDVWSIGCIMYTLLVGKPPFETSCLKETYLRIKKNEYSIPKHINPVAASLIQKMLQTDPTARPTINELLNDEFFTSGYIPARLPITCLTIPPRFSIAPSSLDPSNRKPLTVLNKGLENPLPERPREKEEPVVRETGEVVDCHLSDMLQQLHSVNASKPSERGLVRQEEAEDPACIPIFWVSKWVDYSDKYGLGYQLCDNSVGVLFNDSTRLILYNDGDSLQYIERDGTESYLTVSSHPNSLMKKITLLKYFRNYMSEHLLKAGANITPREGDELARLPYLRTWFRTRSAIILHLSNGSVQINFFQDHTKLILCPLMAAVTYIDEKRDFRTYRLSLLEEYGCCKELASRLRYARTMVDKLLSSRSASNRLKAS
Sequence of Aurora kinase B (Q96GD4 whole entry): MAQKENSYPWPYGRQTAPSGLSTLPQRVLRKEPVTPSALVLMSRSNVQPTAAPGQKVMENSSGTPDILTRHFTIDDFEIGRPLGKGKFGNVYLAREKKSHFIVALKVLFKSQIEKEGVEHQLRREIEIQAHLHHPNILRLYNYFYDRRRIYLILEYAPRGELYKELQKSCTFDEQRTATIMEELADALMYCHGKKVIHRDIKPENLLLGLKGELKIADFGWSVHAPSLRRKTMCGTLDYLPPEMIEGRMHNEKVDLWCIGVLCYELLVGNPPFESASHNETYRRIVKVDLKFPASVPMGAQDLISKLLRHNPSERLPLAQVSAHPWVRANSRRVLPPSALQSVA
Sequence of Dual specificity mitogen-activated protein kinase kinase 2 (Homo sapiens) (P36507 whole entry): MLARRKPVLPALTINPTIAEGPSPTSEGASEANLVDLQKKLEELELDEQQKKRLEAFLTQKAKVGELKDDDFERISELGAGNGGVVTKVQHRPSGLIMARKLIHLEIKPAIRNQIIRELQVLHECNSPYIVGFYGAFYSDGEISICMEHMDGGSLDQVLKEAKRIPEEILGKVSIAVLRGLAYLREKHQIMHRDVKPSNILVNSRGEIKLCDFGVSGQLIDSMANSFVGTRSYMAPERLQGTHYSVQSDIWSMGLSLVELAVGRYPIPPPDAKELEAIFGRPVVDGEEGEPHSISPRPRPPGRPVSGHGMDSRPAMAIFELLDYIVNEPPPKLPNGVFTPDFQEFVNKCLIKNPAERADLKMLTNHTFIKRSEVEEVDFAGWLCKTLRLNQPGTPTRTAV
Sequence of Fibroblast growth factor receptor 2 (Homo sapiens) (P21802 22-821 limits assumed): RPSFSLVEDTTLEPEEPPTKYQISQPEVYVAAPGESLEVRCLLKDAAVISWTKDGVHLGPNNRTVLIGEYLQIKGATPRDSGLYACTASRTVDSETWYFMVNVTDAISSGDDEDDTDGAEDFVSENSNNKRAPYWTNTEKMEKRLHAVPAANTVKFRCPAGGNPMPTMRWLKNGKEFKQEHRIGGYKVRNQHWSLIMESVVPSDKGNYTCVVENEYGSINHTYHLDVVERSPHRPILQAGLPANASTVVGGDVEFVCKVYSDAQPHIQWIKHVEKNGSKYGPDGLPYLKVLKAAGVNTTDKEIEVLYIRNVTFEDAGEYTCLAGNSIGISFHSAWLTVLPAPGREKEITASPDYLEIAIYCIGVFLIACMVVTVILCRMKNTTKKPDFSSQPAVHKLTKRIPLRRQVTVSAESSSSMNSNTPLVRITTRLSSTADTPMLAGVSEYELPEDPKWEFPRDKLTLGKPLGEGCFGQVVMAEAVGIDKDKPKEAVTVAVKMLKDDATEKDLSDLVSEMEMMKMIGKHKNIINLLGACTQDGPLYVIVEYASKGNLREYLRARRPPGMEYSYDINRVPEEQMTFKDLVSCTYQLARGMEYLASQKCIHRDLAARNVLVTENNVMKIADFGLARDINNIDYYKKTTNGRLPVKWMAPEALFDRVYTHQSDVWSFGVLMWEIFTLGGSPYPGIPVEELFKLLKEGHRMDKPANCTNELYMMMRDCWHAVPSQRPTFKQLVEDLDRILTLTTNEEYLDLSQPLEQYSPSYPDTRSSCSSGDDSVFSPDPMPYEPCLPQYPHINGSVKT
Sequence of Calcium/calmodulin-dependent protein kinase type II subunit delta (Homo sapiens) (Q13557 whole entry): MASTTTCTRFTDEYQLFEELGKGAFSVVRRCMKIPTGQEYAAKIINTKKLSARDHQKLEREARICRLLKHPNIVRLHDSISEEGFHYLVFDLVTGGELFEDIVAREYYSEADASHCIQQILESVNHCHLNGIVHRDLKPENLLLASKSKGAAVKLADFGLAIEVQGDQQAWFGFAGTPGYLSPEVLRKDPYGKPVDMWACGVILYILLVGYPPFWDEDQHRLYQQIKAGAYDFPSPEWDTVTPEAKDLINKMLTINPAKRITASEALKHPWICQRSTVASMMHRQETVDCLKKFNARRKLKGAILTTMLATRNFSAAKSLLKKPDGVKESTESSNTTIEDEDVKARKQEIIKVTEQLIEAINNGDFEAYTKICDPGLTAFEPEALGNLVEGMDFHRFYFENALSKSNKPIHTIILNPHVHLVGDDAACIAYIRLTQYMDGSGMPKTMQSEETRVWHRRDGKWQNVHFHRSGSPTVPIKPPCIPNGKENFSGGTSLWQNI

On to `CN(C)C/C=C/C(=O)Nc1ccc(C(=O)N2CCCC(Nc3ncc(Cl)c(-c4c[nH]c5ccccc45)n3)C2)cc1` (centres undefined), for which the % of control in test [1] stood at 81%. As for `CNC(=O)Nc1ccc(-c2nc(N3CC4CCC(C3)O4)c3cnn(C4CCC5(CC4)OCCO5)c3n2)cc1`, the % of control in [2] was determined as 100%. `Cc1cc([C@@H](C)Nc2ccccc2C(=O)O)c2nc(N3CCOCC3)cc(=O)n2c1` [AZD-6482]: the % of control in test [3] and in test [4] was 100% throughout. `COc1cc(N(C)c2ccnc3ccc(C(F)(F)F)cc23)cc(OC)c1OC` returned a % binding in [5] of 100%.

`Nc1cnc(N2CCc3cc(S(=O)(=O)Nc4c(F)cc(Cl)cc4F)cc(N4CCCC4=O)c32)nc1` [TP-020n] gave a % of control in [6] of 92%.

On to `CCc1cc(Nc2nccc(-c3c(-c4ccc(OC)c(C(=O)Nc5c(F)cccc5F)c4)nc4ccccn34)n2)c(OC)cc1N1CCC(N2CCN(S(C)(=O)=O)CC2)CC1`, for which the IC50 at Aurora kinase B is more than 4000 nM. Turning to `CCC(=O)N1CC[C@H](Nc2ncnc3c2CN(c2cnc(OC)c(C(F)(F)F)c2)CC3)C1` [LENIOLISIB], in [7], the half-inhibitory concentration (IC50) was found to be 99 nM. `CC[C@@H]1[C@H](F)C(=O)N[C@@H]1COc1nccc2cc(C(N)=O)c(OC)cc12` [ZIMLOVISERTIB] displayed a % of inhibition in [8] of 0.9%. Regarding `C=CC(=O)Nc1cccc(C(=O)Nc2ccc(Nc3cc(-c4[nH]c(SC)nc4C)ccn3)cc2)c1`, the % of control was 74% in test [9] (at 1 µM) and 39% in test [9] (at 5 µM). The molecule `CCC(=O)N1CCN(c2ccc(-n3c(=O)ccc4cnc5ccc(-c6cnc7ccccc7c6)cc5c43)cc2C(F)(F)F)CC1` returned a % of control in test [10] of 100%.

Take `CN(C(=O)c1cnn2cccnc12)c1cc2c(cc1N1CCOCC1)C(=O)N(C[C@@H](F)C(C)(C)O)C2`: the dTM in [11] worked out at 0 K; in test [12], 0.3 K.

As usually defined, the IC50 is the midpoint of a concentration-inhibition curve. Lower therefore signals higher potency.

For the origin of these results see ChEMBL document CHEMBL5465560, “Selectivity Literature for EUbOPEN Chemogenomic Library” (2024).
